Data set [1] has as its target T1, human 14273 receptor (Homo sapiens, UniProt Q5NUL3).
T1 construct: expressed in transfected cells
T1 sequence (Q5NUL3 1-361): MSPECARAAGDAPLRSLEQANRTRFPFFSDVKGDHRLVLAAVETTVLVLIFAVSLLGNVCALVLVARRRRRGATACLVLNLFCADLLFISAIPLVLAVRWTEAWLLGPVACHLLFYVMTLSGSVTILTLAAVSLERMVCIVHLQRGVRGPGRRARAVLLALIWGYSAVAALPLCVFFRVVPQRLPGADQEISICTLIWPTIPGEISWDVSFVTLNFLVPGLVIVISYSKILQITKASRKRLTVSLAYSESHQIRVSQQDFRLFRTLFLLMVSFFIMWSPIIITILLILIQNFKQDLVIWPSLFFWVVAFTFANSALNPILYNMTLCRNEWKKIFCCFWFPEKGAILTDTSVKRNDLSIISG
As to the kind of experiment: Test Example 1: regulating effect for 14273 receptor function (agonist effect), change in intracellular calcium level by FLIPR. The settings on record: CHO cell line (No. 104) expressing human 14273 receptor, change of fluorescent intensity after 35 seconds. In kind it is cell-based. How it is done: CHO cell lines (No. 104) in which a human 14273 receptor has expressed was diluted to contain 3×10^4/100 μl cells, and dispensed in Black walled 96-well plate (Costar) at a density of 100 μl/well, followed by culturing overnight in a CO2 incubator. A change in intracellular calcium level was measured using FLIPR (Molecular Device). The method is described as below. 50 μg of Fluo-3AM (DOJIN) was dissolved in 21 μl of DMSO (DOJIN) and an equal volume of 20% pluronic acid (Molecular Probes) was added thereto, followed by mixing them. The mixture was added to 10.6 ml of the assay buffer [which is prepared by adding 10 ml of a solution, which is prepared by adding 20 ml of 1 M HEPES (pH 7.4, DOJIN) to 1 L of HBSS (Invitrogen), dissolving 710 mg of probenecid (Sigma) in 5 ml of 1 N NaOH, and further adding 5 ml of the above-mentioned HBSS/HEPES solution and mixing it.] supplemented with 105 μl of fetal bovine serum to prepare a fluorescent dye solution. The medium of the cell plate was removed, the fluorescent dye solution was dispensed in 100 μl each per well. The culturing was performed in a CO2 incubator for 1 hour to incorporate the fluorescent dye into the cells. The cells after culturing were washed with the assay buffer. The compounds to be added to the cells were diluted to each concentration with a buffer solution to which CHAPS (DOJIN) was added in 0.015%, and dispensed in a plate for the test sample. Following the pretreatment above, a change in intracellular calcium level after addition of the compound was determined with FLIPR to investigate the agonist effect. An EC50 value was calculated from dose-reaction curve using the change of fluorescent intensity after 35 seconds from the reaction initiation.

For data set [2], the target named is T1, human 14273 receptor. As to the kind of experiment: Reference Example A2: reactivity of fatty acids, intracellular calcium by FLIPR in CHO-K1 cells expressing human 14273 receptor. In kind it is cell-based. As to conditions: 30 μM fatty acid; CHO-K1 cells transiently expressing human 14273; FLIPR (FIG. 1-5). How it is done:
(§1) CHO-K1 cell line was cultured using Ham's F-12 medium (Invitrogen) containing 10% fetal bovine serum (Invitrogen), unless otherwise described. On the day before transfection was conducted, 4.5×10^5 cells were dispersed per 10 cm^2, and cultured at 37° C. for 15 hours by a CO2 incubator adjusted to a CO2 concentration of 5%. Transfection was carried out using a Lipofectamine reagent (Invitrogen) in accordance with the instruction accompanying the reagent. In the case of using a 6-well plate as culture dish, the following steps were performed. First of all, two tubes having a volume of 1.5 ml each were provided, and 100 μl of an Opti-MEM-I medium (Invitrogen) was dispensed to each of the tubes. Next, after adding 1 μg of an expression vector to one tube and adding 6 μl of the Lipofectamine reagent to the other tube, both of them were mixed, and left at rest at room temperature for 20 minutes. A mixture for transfection, in which 800 μl of the Opti-MEM-I medium was added to this solution, was added to the CHO-K1 cells previously washed using the Opti-MEM-I medium, and then the cells were cultured in the CO2 incubator for 6 hours. The cells after culturing were rinsed using PBS (Invitrogen), then detached using a 0.05% trypsin/EDTA solution (Invitrogen), and recovered through centrifugation. The number of the obtained cells was measured, and the cells were diluted to a concentration of 5×10^4 cells per 100 μl of the medium. This dilution was separately injected to a Black-walled 96-well plate (Costar) in an amount of 100 μl per well, and then the cells were incubated overnight in a CO2 incubator. To the CHO-K1 cells which transiently expressed the receptor during the transfection operation, various test samples were added, and the change in the intracellular calcium concentration during this operation was measured using FLIPR (Molecular Device). In order to measure the change in the intracellular calcium concentration with FLIPR, the following pretreatment was performed. First, Assay Buffer for washing cells was prepared in order to add a fluorescent dye Fluo3-AM (DOJIN) to the cells, or to wash cells immediately before performing the FLIPR assay. To a solution prepared by adding 20 ml of 1 M HEPES (pH 7.4) (DOJIN) to 1000 ml of HBSS (Invitrogen) (hereinafter, HBSS/HEPES solution), 10 ml of a solution prepared by dissolving 710 mg of probenecid (Sigma) in 5 ml of a 1 N NaOH solution, and then further added 5 ml of the HBSS/HEPES solution thereto was added, and this solution was used as the Assay Buffer. […] After performing the pretreatment as described above, the changes in the intracellular calcium concentration after addition of various test samples were measured using FLIPR.
Background: Calcium flux is commonly read through the fluorescence of an indicator in the cells.

The target in data set [3] is T2, mouse 14273 receptor (Mus musculus, UniProt Q7TMA4).
T2 construct: expressed in transfected cells; host or cells: CHO-K1 cells, transient transfection with Lipofectamine
T2 sequence (Q7TMA4 1-361): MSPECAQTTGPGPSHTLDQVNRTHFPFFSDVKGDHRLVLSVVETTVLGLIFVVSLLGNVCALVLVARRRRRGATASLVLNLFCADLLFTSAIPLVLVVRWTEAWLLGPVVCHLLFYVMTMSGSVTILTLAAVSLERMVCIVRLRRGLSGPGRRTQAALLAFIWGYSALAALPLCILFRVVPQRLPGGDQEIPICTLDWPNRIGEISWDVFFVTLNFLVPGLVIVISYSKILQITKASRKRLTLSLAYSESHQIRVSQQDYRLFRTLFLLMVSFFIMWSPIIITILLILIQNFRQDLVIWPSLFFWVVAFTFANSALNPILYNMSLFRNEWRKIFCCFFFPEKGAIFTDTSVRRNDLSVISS
As to the kind of experiment: Reference Example A2: reactivity of fatty acids, intracellular calcium by FLIPR in CHO-K1 cells expressing mouse 14273 receptor. The settings on record: 30 μM fatty acid; CHO-K1 cells transiently expressing mouse 14273; FLIPR (FIG. 1-5). In kind it is cell-based. How it is done: as §1

For data set [4], the system named is AtT-20 cells. As to the kind of experiment: Reference Example A10: inhibitory activity of fatty acids against CRF-induced ACTH secretion from AtT-20 cells. The settings on record: 10 nM CRF; 90 minutes; fatty acids conjugated with BSA; adhesive AtT-20 substrain (FIG. 13).

21 compounds from US8008525B2, “Receptor function regulating agent” (Takeda Pharmaceutical Company Limited, priority 2003, dated 2011) can be followed below.

Turning to `Cl.NCCOc1cc(COc2ccc(CCC(=O)O)cc2F)cc(Oc2ccccc2)c1`, the melting point – broadly, the temperature, or range, at which the solid turns liquid – was in the range of 182 to 183 °C.

For the compound `O=C(O)CCc1ccc(OCc2cccc(OCC(=O)O)c2)c(F)c1` [Example 107, 3-(4-{[3-(carboxymethoxy)benzyl]oxy}-3-fluorophenyl)propanoic acid], the melting point is 150 to 151 °C.

`O=C(O)CCc1ccc(OCc2cc(OCC(=O)O)cc(Oc3ccccc3)c2)c(F)c1` [Example 129, 3-(4-{[3-(carboxymethoxy)-5-phenoxybenzyl]oxy}-3-fluorophenyl)propanoic acid] yielded a melting point of 122 to 124 °C.

On to `CCOc1cccc(COc2ccc(CCC(=O)O)cc2C)c1` [Example 180, 3-{4-[(3-ethoxybenzyl)oxy]-3-methylphenyl}propanoic acid], for which, in data set [1], the EC50 (usually the concentration at which the effect is half-maximal) was ≤ 10 µM.

Turning to `CCOc1cccc(COc2ccc(CCC(=O)O)cc2F)c1` [Example 188, 3-{4-[(3-ethoxybenzyl)oxy]-3-fluorophenyl}propanoic acid], the concentration giving a half-maximal response (EC50) in data set [1] was ≤ 10 µM.

For the compound `CCOc1cccc(COc2ccc(CCC(=O)O)cc2F)c1C` [Example 208, 3-{4-[(3-ethoxy-2-methylbenzyl)oxy]-3-fluorophenyl}propanoic acid], the EC50 in data set [1] was ≤ 10 µM.

For the compound `O=C(O)CCc1ccc(OCc2cccc(Oc3ccccc3)c2)cc1` [Reference Example 8, 4-[(3-Phenoxyphenyl)methoxy]benzenepropanoic acid], the EC50 in data set [1] is ≤ 10 µM.

On to `O=C(O)CCc1cc(F)c(OC2CCc3ccccc32)c(F)c1` (centres unmarked) [Reference Example 14, 3,5-Difluoro-4-[(2,3-dihydro-1H-inden-1-yl)oxy]benzenepropanoic acid], for which the EC50 in data set [1] is ≤ 10 µM.

As to `O=C(O)CCc1ccc(OCc2cccc(-c3ccccc3)c2)c(Cl)c1` [Reference Example 18, 4-([1,1′-Biphenyl]-3-ylmethoxy)-3-chlorobenzenepropanoic acid], the EC50 in data set [1] was ≤ 10 µM.

For `O=C(O)CCc1ccc(OC2CCCc3ccccc32)cc1` (centres unmarked) [Reference Example 20, 4-[(1,2,3,4-Tetrahydronaphthalen-1-yl)oxy]benzenepropanoic acid], the half-maximal effective concentration (EC50) in data set [1] is ≤ 10 µM.

For the compound `CC1(C)Cc2ccccc2C1Oc1ccc(CCC(=O)O)cc1` (centres unmarked) [Reference Example 25, 4-[(2,3-Dihydro-2,2-dimethyl-1H-inden-1-yl)oxy]benzenepropanoic acid], the half-maximal effective concentration (EC50) in data set [1] is ≤ 10 µM.

Turning to `O=C(O)CCc1ccc(OCc2ccccc2Oc2ccccc2)cc1` [Reference Example 30, 4-[(2-Phenoxyphenyl)methoxy]benzenepropanoic acid], in data set [1], the EC50 is ≤ 10 µM.

With `COc1ccc2c(c1)C(Oc1ccc(CCC(=O)O)cc1)C(C)(C)C2` (centres unmarked) [Reference Example 44, 4-[(2,3-Dihydro-6-methoxy-2,2-dimethyl-1H-inden-1-yl)oxy]benzenepropanoic acid], the EC50 in data set [1] was ≤ 10 µM.

Turning to `CC1(C)Cc2ccc(Cl)cc2C1Oc1ccc(CCC(=O)O)cc1` (centres unmarked) [Reference Example 47, 4-[(6-Chloro-2,3-dihydro-2,2-dimethyl-1H-inden-1-yl)oxy]benzenepropanoic acid], in data set [1], the EC50 is ≤ 10 µM.

As for `Cc1ccc2c(c1)C(Oc1ccc(CCC(=O)O)cc1)C(C)(C)C2` (centres unmarked) [Reference Example 50, 4-[(2,3-Dihydro-2,2,6-trimethyl-1H-inden-1-yl)oxy]benzenepropanoic acid], the 50% effective concentration (EC50) in data set [1] was ≤ 10 µM.

For `CCCCC/C=C\C/C=C\C/C=C\C/C=C\CCCC(=O)O` [arachidonic acid], the “response (increase in the intracellular calcium concentration)” value in data set [2] and in data set [3] was “specifically responsed” in each case.

Consider `CCCC(=O)O` [butyric acid], for which the “suppression of CRF-induced ACTH secretion” value (shortened to “suppression”) in data set [4] is “did not exhibit significant inhibition”.

For the compound `CCCCC/C=C\C/C=C\CCCCCCCC(=O)O` [linoleic acid], the “response (increase in the intracellular calcium concentration)” value in data set [2] and in data set [3] was “specifically responsed” in each case.

In the case of `CCCCCC/C=C\CCCCCCCC(=O)O` [palmitoleic acid], the “response (increase in the intracellular calcium concentration)” value in data set [2] and in data set [3] was “specifically responsed” in each case.

`CC/C=C\C/C=C\C/C=C\CCCCCCCC(=O)O` [α-linolenic acid]: the “suppression” value in data set [4] is given as “significant suppression”.

As for `CCCCC/C=C\C/C=C\C/C=C\CCCCC(=O)O` [γ-linolenic acid], the “response (increase in the intracellular calcium concentration)” value in data set [2] and in data set [3] was “specifically responsed” throughout. In addition, the “suppression” value in data set [4] was “significant suppression”.
